The text below walks through data of patent publication US5491242A, “Protein kinase C inhibitors” (Eli Lilly and Company, priority 1995, dated 1996).

Each structure is given as a SMILES string. Read-outs that look alike come from different tables or passages of the source.

What all share (format): biochemical
In one test the target is PKC gamma (Homo sapiens, UniProt P05129). The test is described as follows: PKC Enzyme Assay, gamma. The settings on record: Table 1.
Another test has as its target PKC alpha (Homo sapiens, UniProt P17252). The test is described as follows: PKC Enzyme Assay, alpha. On the procedure: (§1) PKC enzymes=alpha, beta I, beta II, gamma, delta, epsilon, eta and zeta
(§2) Assay components in a total volume of 250 μL are the following:
(§3) Vesicles consisting of 120 μg/mL phosphatidylserine (Avanti Polar Lipids) and sufficient diacylglycerol (Avanti Polar Lipids) to activate the enzyme to maximum activity in 20 mM HEPES buffer (Sigma, St. Louis, Mo.), pH 7.5, 940 μM calcium chloride (Sigma, St. Louis, Mo.) for assaying the alpha, beta I, beta II and gamma enzyme only, 1 mM EGTA for all the enzymes, 10 mM magnesium chloride (Sigma, St. Louis, Mo.) and 30 μM (gamma-32P) ATP (DuPont). For all the enzymes either histone type HL (Worthington) or myelin basic protein is used as substrate. The assay is started by addition of protein kinase C enzyme incubated at 30° C. for 10 minutes and stopped by adding 0.5 mL of cold trichloroacetic acid (Amresco) followed by 100 μL of 1 mg/mL bovine serum albumin (Sigma, St. Louis, Mo.). The precipitate is collected by vacuum filtration on glass fiber filters employing a TOMTEC™ filtration system and quantified by counting in a beta scintillation counter.

For a further test, the target named is PKC delta (Homo sapiens, UniProt Q05655). The test is described as follows: PKC Enzyme Assay, delta. The following applies: Table 1.
PKC delta, sequence (Q05655 whole entry): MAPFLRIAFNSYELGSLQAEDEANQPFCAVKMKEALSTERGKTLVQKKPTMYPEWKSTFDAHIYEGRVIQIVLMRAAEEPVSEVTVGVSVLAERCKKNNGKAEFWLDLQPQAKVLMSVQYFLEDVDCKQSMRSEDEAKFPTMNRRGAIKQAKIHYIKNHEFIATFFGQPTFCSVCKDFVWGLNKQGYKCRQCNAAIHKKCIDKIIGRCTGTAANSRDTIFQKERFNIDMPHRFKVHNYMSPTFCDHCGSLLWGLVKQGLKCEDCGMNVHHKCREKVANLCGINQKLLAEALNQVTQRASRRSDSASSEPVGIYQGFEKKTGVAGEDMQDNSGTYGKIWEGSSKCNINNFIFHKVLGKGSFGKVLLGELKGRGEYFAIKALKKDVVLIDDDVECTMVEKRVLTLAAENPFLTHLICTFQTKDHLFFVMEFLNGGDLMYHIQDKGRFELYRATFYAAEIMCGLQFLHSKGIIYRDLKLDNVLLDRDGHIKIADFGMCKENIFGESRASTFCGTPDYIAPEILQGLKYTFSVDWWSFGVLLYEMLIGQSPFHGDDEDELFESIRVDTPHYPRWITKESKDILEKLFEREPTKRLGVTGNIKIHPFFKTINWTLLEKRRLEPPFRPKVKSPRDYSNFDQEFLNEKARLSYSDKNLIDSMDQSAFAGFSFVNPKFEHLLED
The next test concerns the target PKC beta I (Homo sapiens, UniProt P05771). Description: PKC Enzyme Assay, beta I. The following applies: Table 1; read-out: IC50 β1. On the procedure:
as §1, §2, §3

The next test addresses PKC beta II (Homo sapiens, UniProt P05771). Description: PKC Enzyme Assay, beta II. The protocol:
as §1, §2, §3

Another test has as its target T1, PKC zeta (Homo sapiens, UniProt Q05513).
T1 sequence (Q05513 1-592): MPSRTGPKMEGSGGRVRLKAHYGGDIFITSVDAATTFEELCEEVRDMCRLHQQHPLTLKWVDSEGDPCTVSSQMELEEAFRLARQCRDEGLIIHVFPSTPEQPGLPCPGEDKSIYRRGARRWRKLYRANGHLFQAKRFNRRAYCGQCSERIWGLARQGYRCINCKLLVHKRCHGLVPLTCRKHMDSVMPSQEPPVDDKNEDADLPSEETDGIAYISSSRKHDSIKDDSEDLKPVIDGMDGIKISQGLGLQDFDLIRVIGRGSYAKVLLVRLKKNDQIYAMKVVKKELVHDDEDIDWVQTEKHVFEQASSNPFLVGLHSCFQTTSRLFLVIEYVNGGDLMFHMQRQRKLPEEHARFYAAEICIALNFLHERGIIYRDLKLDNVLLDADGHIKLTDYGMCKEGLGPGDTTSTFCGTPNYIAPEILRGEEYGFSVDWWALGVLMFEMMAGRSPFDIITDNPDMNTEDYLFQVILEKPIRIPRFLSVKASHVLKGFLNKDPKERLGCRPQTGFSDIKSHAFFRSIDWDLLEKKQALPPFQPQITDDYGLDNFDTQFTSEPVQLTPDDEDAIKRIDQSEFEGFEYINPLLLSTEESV
The test is described as follows: PKC Enzyme Assay, zeta. The following applies: Table 1. The protocol:
as §1, §2, §3

PKC beta I, sequence (P05771 whole entry): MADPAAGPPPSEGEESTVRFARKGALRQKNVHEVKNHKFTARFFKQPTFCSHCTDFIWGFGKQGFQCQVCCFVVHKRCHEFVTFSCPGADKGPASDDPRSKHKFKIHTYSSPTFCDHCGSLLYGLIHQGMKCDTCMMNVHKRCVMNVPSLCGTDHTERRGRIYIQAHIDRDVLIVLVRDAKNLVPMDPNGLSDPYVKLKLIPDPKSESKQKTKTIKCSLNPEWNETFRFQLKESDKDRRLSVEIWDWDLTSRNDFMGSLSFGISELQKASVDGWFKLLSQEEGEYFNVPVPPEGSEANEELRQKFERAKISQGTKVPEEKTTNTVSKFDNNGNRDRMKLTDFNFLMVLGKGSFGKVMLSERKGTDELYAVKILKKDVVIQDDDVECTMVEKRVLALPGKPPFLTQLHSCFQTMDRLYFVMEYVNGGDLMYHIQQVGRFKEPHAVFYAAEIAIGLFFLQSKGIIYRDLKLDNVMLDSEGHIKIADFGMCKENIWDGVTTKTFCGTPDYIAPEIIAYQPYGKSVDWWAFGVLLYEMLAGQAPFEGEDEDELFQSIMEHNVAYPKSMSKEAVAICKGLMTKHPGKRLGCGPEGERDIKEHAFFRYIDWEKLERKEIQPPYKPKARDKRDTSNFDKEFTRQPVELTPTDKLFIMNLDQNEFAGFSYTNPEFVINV
PKC beta II, sequence (P05771 1-673 isoform P05771-2): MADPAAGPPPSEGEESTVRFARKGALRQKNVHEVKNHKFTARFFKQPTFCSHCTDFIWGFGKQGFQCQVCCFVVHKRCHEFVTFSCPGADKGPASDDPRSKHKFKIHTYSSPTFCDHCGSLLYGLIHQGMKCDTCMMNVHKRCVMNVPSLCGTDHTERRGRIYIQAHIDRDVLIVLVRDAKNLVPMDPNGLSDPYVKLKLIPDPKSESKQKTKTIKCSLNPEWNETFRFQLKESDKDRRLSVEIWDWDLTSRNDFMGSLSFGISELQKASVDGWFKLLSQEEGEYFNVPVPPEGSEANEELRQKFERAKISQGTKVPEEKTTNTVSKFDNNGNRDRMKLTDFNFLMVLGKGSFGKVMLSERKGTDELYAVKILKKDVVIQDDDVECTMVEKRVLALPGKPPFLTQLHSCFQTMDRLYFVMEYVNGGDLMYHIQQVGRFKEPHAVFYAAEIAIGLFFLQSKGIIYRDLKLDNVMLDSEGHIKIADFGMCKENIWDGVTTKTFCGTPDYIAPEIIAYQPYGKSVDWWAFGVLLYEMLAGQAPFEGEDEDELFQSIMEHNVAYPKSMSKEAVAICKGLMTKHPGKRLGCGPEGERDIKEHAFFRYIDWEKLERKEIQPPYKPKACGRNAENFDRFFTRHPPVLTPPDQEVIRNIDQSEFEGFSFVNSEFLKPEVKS

`CC(C)(C)OC(=O)NCC(=O)n1cc(C2=C(c3cn(CCCN=[N+]=[N-])c4ccccc34)C(=O)NC2=O)c2ccccc21` [Example 1, 3-[1-(3-azidopropyl)-3-indolyl]-4-[(1-N-^t BOC)-glycine-3-indolyl]-1H-pyrrol-2,5-dione]: the IC50 at PKC gamma came to 19 µM; on PKC alpha (read-out: IC50 with respect to the alpha protein kinase C isozyme), 1.4 µM; against PKC delta it was 4.6 µM; at PKC beta I, 0.26 µM; on PKC beta II (read-out: 50% inhibition at a concentration for the beta-2 isozyme) it was 0.031 µM; against PKC zeta, 100 µM.
Consider `CC(C)(C)OC(=O)N[C@@H](Cc1ccccc1)C(=O)n1cc(C2=C(c3cn(C(=O)[C@H](Cc4ccccc4)NC(=O)OC(C)(C)C)c4ccccc34)C(=O)NC2=O)c2ccccc21` [Example 3, 3,4-Bis[(1-N-^t BOC)-phenylalanine-3-indolyl]-1H-pyrrol-2,5-dione], for which the IC50 against PKC gamma was above 100 µM; at PKC alpha (Table 1, read-out: IC50 α) it was 83 µM; on PKC delta it was above 100 µM; at PKC beta I, 8 µM; at PKC beta II (Table 1, read-out: IC50 β2) it was 2.6 µM; on PKC zeta it was above 100 µM.
